Among the data in ChEMBL document CHEMBL1201862, “PubChem BioAssay data set” (2004) are EC50, IC50 and AC50 values, retold here.

Calls of active or inactive are those of the source.

Assay [1] in a line: viability of HCT116 lacking mutant beta-catenin – cell-based, human colon tumor, dose response (AID 1045).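 Also: HCT116 colon tumor cells with beta catenin knocked out; cells exposed to compound for 60 hours.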 The assay is classed as functional.
For assay [2], the target named is Induced myeloid leukemia cell differentiation protein Mcl-1 (Homo sapiens, UniProt Q07820). Kind of assay: Mcl-1 Noxa peptide disruption concentration-response – biochemical, TR-FRET, dose response (AID 1417). The assay is classed as functional.
Chain of Induced myeloid leukemia cell differentiation protein Mcl-1 (Q07820 whole entry): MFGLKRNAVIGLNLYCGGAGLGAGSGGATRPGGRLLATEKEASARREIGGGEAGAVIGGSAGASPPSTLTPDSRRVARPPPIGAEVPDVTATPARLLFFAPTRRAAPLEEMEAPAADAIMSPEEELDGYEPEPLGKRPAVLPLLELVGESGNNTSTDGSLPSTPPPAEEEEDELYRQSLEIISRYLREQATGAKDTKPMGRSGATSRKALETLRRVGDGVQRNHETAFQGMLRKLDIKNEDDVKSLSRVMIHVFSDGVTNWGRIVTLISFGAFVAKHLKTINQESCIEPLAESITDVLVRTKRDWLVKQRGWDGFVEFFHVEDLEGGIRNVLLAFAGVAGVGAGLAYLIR
The target in another assay is Prothrombin (Bos taurus, UniProt P00735). The assay is described as follows: thrombin protease inhibitors – biochemical, fluorescence polarization, uHTS hits, dose response (AID 602369). The assay is classed as functional. (Polarisation of emitted light reports the rotation of a fluorescent probe.)
The nature of assay [3]: viability of PTEN-deleted HCT116 cells – cell-based, HCT116 PTEN knockout, dose response (AID 1047).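 Also: HCT116 colon tumor cells with PTEN knocked out; cells exposed to compound for 60 hours before readout; potency for loss of cell viability measured by luminescence.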 The assay is classed as functional.
The target of assay [4] is 26S proteasome non-ATPase regulatory subunit 14 (Homo sapiens, UniProt O00487). Kind of assay: inhibition of proteasome subunit RPN11 – biochemical, fluorescence polarization, uHTS hits, confirmation (AID 602368). The assay is classed as functional.
Chain of 26S proteasome non-ATPase regulatory subunit 14 (O00487 whole entry): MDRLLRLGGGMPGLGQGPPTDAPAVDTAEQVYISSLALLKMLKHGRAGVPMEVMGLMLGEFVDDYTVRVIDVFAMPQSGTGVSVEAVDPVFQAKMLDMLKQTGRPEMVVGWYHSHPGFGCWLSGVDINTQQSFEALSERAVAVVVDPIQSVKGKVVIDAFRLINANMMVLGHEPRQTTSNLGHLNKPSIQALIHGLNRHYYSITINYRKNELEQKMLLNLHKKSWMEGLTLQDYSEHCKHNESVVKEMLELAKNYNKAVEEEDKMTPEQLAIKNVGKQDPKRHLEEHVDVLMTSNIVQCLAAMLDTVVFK
The target in assay [5] is 72 kDa type IV collagenase (Homo sapiens, UniProt P08253). The assay is described as follows: Dose Response validation of uHTS RPN11 inhibitor hits using a MMP-2 Fluorescence assay. The assay is classed as functional.
Chain of 72 kDa type IV collagenase (P08253 whole entry): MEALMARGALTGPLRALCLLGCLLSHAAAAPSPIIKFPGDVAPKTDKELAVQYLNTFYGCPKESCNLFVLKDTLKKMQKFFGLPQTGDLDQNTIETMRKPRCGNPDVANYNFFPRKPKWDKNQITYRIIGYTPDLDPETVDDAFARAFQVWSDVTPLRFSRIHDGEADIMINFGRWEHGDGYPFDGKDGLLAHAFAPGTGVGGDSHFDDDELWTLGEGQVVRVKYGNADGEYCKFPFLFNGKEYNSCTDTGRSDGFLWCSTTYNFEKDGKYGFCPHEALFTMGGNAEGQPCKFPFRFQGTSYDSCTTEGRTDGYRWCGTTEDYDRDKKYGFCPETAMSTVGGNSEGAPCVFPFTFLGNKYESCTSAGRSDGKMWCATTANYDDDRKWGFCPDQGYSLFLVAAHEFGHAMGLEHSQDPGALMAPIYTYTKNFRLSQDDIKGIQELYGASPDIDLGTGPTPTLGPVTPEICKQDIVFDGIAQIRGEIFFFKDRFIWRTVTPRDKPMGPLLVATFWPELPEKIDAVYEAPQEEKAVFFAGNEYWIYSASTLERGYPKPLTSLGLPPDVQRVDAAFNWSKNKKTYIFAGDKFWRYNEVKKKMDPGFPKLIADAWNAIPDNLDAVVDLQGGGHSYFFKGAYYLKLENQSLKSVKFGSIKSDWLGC
The target of assay [6] is T1, Rac GTPase-activating protein 1 (Homo sapiens, UniProt Q9H0H5).
T1 sequence (Q9H0H5 whole entry): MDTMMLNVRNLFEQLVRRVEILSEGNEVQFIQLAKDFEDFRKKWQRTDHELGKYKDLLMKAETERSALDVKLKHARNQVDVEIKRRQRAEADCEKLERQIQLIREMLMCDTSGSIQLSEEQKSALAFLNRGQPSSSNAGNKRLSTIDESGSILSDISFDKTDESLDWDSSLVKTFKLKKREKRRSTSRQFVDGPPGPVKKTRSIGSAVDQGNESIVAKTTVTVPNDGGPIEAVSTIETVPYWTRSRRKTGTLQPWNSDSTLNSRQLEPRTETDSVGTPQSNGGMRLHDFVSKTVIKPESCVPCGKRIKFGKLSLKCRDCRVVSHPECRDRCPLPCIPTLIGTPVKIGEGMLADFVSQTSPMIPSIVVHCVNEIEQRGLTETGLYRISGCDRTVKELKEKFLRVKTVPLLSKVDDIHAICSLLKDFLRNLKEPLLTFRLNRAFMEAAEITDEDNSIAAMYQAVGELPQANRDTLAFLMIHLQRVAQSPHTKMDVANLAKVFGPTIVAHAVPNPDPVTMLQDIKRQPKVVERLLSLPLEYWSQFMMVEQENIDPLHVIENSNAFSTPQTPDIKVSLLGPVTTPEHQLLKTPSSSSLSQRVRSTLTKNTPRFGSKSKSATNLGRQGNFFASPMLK
Kind of assay: blockers of MgcRacGAP-driven Rac1 GTP hydrolysis – biochemical, ADP Hunter fluorescence, primary and confirmatory, confirmation (AID 624330). In kind it is functional.

Assay [7] deals with FAD-linked sulfhydryl oxidase ALR (Homo sapiens, UniProt P55789). The assay is described as follows: ALR-catalysed DTT oxidation blockers – biochemical, H2O2 detection, luminescence, cherry-pick, dose response (AID 493248).
Chain of FAD-linked sulfhydryl oxidase ALR (P55789 whole entry): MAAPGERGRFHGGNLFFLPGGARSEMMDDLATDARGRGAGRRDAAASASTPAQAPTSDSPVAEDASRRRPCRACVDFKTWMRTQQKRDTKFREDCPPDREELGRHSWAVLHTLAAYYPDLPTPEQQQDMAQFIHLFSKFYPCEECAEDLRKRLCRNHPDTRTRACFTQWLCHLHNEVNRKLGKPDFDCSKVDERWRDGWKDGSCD
For another assay, the target named is T2, CAAX prenyl protease 2 (Saccharomyces cerevisiae S288c, UniProt Q03530).
T2 sequence (Q03530 whole entry): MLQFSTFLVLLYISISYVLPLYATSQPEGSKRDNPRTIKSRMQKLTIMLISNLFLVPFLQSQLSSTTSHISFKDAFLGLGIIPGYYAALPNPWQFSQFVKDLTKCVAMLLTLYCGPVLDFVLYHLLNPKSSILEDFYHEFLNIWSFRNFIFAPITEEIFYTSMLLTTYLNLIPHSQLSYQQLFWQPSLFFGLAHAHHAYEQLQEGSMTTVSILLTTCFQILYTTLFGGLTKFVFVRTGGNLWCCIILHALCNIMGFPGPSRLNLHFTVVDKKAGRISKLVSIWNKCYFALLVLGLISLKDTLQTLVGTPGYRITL
In kind it is biochemical.

In a further assay the target is T3, Leucine aminopeptidase (Plasmodium falciparum 3D7, UniProt Q8IL11).
T3 sequence (Q8IL11 whole entry): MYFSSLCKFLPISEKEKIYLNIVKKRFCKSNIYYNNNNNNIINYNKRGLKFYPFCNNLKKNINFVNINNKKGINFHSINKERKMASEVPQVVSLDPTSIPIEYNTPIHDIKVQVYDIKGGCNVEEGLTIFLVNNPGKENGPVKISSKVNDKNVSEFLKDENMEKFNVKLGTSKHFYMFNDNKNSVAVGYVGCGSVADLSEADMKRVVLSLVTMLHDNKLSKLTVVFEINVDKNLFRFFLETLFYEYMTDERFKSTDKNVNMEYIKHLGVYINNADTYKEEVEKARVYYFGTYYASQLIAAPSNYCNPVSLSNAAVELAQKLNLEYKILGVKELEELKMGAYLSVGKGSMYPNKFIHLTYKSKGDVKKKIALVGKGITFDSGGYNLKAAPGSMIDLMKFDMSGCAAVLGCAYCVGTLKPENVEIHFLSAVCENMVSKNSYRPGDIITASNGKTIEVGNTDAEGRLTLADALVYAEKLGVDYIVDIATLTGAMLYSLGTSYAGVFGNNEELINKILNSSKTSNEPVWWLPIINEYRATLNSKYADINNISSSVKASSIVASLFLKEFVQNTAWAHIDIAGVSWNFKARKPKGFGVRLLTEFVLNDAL
The assay is described as follows: P. falciparum M17LAP inhibitors, primary screen, biochemical, fluorogenic H-Leu-NHMec substrate, 1536-well (AID 1619). In kind it is functional.

The next assay has as its target T4, Aminopeptidase N (Plasmodium falciparum FcB1/Columbia, UniProt O96935).
T4 sequence (O96935 whole entry): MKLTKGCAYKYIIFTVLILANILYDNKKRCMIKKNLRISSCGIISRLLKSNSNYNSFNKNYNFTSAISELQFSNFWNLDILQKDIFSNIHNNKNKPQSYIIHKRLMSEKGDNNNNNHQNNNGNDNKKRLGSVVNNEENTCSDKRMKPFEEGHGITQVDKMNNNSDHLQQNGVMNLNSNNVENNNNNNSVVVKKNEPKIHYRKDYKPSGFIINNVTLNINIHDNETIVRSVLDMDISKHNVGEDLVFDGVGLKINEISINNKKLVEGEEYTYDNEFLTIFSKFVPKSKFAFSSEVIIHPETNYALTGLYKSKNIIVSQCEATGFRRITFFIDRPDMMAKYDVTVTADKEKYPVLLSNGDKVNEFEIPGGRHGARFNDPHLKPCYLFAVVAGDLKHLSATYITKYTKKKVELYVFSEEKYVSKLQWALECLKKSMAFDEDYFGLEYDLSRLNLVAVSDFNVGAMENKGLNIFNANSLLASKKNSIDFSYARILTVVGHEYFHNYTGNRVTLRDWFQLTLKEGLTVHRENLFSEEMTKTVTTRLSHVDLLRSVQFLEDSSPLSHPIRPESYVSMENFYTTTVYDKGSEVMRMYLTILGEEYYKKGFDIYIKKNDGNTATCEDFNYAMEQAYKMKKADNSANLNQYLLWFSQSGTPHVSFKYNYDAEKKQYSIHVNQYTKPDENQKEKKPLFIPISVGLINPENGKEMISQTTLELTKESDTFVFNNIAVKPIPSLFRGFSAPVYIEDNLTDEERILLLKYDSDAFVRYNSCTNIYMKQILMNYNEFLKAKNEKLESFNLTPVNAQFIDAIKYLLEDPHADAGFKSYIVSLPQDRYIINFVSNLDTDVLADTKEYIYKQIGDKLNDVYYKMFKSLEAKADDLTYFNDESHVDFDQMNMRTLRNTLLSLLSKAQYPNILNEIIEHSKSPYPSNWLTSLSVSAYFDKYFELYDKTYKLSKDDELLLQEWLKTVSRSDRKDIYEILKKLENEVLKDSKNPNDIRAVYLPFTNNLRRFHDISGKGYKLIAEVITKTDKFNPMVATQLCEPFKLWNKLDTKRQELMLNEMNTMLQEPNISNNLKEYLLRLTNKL
Kind of assay: malaria alanyl aminopeptidase activity blockers – biochemical, fluorogenic H-Leu-NHMec substrate, 1536-well (AID 1445). Details: species or system Plasmodium falciparum 3D7, 3D7.

The target in the next assay is T5, Protein RecA (Mycobacterium tuberculosis, UniProt P9WHJ3).
T5 sequence (P9WHJ3 whole entry): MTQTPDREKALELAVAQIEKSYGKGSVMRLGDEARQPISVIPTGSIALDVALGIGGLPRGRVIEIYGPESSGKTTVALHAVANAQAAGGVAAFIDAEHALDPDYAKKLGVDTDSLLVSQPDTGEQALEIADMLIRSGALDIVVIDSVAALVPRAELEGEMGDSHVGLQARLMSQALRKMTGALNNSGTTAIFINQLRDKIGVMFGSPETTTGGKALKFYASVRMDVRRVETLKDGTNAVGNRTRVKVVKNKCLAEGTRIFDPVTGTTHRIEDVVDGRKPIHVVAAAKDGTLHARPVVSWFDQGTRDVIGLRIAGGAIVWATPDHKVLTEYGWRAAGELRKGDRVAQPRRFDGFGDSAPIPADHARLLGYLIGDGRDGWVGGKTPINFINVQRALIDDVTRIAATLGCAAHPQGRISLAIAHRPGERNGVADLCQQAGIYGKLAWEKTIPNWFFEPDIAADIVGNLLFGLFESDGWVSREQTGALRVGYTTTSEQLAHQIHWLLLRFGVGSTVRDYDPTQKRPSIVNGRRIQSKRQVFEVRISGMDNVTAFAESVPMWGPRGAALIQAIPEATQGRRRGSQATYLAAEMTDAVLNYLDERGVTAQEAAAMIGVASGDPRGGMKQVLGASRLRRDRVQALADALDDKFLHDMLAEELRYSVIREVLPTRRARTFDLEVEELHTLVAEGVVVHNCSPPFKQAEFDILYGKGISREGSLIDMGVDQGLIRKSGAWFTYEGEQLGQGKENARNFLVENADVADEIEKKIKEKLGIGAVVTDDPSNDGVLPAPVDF
Kind of assay: Fluorescence Cell-Free Homogeneous Dose Retest to Identify Inhibitors of RecA-Intein Splicing Activity. [Related pubchem assays (depositor defined):AID2097, AID2223, AID489010, AID492950]. The assay is classed as functional.

The target in assay [8] is T6, Replicative DNA helicase DnaB (Mycobacterium tuberculosis, UniProt P9WMR3).
T6 sequence (P9WMR3 whole entry): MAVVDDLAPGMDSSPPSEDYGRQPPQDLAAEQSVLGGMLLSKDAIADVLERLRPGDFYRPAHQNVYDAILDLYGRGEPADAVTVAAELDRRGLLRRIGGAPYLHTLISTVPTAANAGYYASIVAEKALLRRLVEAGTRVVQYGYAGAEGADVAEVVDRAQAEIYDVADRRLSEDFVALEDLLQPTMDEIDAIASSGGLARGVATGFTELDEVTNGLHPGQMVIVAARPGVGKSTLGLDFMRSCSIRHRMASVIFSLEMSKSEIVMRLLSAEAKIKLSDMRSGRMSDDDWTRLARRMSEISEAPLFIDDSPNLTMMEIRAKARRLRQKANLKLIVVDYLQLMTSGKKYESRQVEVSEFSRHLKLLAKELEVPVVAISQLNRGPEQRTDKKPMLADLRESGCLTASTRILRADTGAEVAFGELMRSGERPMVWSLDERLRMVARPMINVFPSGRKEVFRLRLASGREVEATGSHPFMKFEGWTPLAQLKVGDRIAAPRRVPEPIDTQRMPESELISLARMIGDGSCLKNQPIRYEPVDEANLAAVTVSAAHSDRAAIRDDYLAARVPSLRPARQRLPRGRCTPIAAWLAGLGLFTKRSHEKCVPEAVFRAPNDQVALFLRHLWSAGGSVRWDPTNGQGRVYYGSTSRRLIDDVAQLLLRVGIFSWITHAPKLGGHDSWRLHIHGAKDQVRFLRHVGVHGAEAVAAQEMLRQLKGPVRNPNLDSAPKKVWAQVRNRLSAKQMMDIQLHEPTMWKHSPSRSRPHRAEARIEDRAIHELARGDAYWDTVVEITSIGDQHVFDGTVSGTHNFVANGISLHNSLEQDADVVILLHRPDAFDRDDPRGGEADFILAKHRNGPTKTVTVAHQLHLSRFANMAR
The assay is described as follows: DnaB intein splicing inhibitors, dose response, biochemical, cell-free fluorescence (AID 449749). The assay is classed as functional.

Assay [9] in a line: DRD fibroblast viability loss – cell-based, non-viral oncogenic, luminescence, dose response (AID 1934). In kind it is functional. As to conditions: Homo sapiens.
In assay [10] the test system is BJ. The assay is described as follows: BJ-TERT-LT-ST fibroblast viability loss – cell-based, RAS-independent, luminescence, dose response (AID 1935).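 Also: BJ fibroblasts immortalized with TERT plus LT and ST oncogenes.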 The assay is classed as functional. The conditions noted are these: Homo sapiens.
Assay [11] concerns BJ. The assay is described as follows: cells. In kind it is functional, cell-based. The conditions noted are these: Homo sapiens.
In assay [12] the test system is BJ. The assay is described as follows: BJ-TERT fibroblast viability loss – cell-based, RAS-independent, luminescence, dose response (AID 1933). The assay is classed as functional. As to conditions: Homo sapiens.

Turning to `COc1ccc2nc(N3C(=O)/C(=C/c4ccc(Cl)cc4)NC3=S)sc2c1`, the concentration giving a half-maximal response (EC50) in assay [1] is 30.4 µM (active); in assay [3], 28.3 µM (active). Also, the IC50 in assay [2] was 1.5 µM (active); at Prothrombin it was 53 µM (active); in assay [4], 13.3 µM (active); in assay [5], 33.5 µM (active).

As to `Cc1ccc(S(=O)(=O)Nc2ccc(N(C)C)cc2)cc1`, the values for the IC50 in assay [6] and in assay [2] were 33.1 µM (active) and 10.7 µM (not active), respectively. The AC50 in assay [7] is 4.46 µM (active).

As for `Cc1cccc(NC(=O)C2(c3ccc([N+](=O)[O-])cc3)CCCC2)c1`, at CAAX prenyl protease 2, the AC50 was 14 µM (active).

For `Cc1ccc(C(=O)OCC(=O)Nc2ccc(N(C)C)cc2)cc1NC(=O)c1ccco1`, the IC50 in [2] is given as 3.67 µM (not active).

Take `CCc1nnc(NC(=O)CSc2nnc(-c3ccc(NS(=O)(=O)c4ccccc4)cc3)o2)s1`: the IC50 was < 1 µM (active) on Leucine aminopeptidase and 59.8 µM (active) on Aminopeptidase N.

With `O=C(CCl)Nc1c(C(=O)Nc2ccc3c(c2)OCCO3)oc2ccccc12`, the EC50 at Protein RecA is 1.06 µM (active); in [9], 19 µM (active); in the assay on BJ [10], > 150 µM (inconclusive); in the assay on BJ [11] it was 29.4 µM (active); in the assay on BJ [12] it was 3.66 µM (active). For the same compound, the AC50 in [8] is 7.89 µM (active).

As usually defined, the EC50 is the concentration at which the effect is half-maximal. What is called IC50 is the concentration needed to halve the response being measured. In general, AC50 refers to the concentration giving half of the maximal activity seen.
